In experiment [1] the test system is ADP-induced platelet aggregation. Nature of the experiment: In vitro ADP-induced platelet aggregation rate of rabbits. Particulars: compositions 9.26 μg/ml, nimodipine 0.05 μg/ml. It is filed as cell-based, New Zealand white rabbits. As to the method: (§1) Rabbits were treated with procaine by local anesthesia, carotid arterial cannulation and bleeding. […] Incubation was performed for 5 min, then 10 μl of 146 μg/ml ADP and 10 μl of 10 μg/ml PAF were added in turn. […] Aggregation inhibition rate (%)=(maximum aggregation rate of blank control group−maximum aggregation rate of administration group)/maximum aggregation rate of blank control group×100%. The experimental data was expressed as x±s and analyzed by SPSS 17.0 statistical software. The comparison of means between multiple groups was performed by one-way analysis of variance. The comparison of sample means between two groups was performed by q test. P<0.05 was considered statistically significant.

Experiment [2] relates to PAF-induced platelet aggregation. Nature of the experiment: In vitro PAF-induced platelet aggregation rate of rabbits. Type of experiment: cell-based, New Zealand white rabbits. Particulars: compositions 9.26 μg/ml, nimodipine 0.05 μg/ml. As to the method: as §1
The subject of experiment [3] is right middle cerebral artery occlusion (MCAO) model. Put plainly: Focal cerebral ischemia-reperfusion injury (MCAO) model in rats. Type of experiment: in vivo, SD rats. Particulars: nimodipine 10.8 mg/kg, x ± s, n = 10.
The mark [4] stands for this setting: ADP 5.4 μg/ml, rabbit PRP, x ± s, n = 10.
[5] abbreviates: PAF 0.37 μg/ml, rabbit PRP, x ± s, n = 10.
Setting [6] is: serum 24 hours after reperfusion, compositions 2.4 g·kg^−1 i.v.

As for `COCCOC(=O)C1=C(C)NC(C)=C(C(=O)OC(C)C)C1c1cccc([N+](=O)[O-])c1` (stereo not shown) [Nimodipine], in experiment [1] (setting [4]), the “Platelet aggregation rate 1 min” value is 26.46 ± 4.41, the “Platelet aggregation rate 5 min” value amounted to 38.33 ± 5.80 and the “Platelet aggregation rate Max” value is on record as 41.85 ± 4.87. Further, in experiment [1] (Oryctolagus cuniculus, Platelet, ADP-induced, from maximum aggregation rate vs blank control), the inhibition at 0.05 µg/mL is 16%. Further, 0.05 µg/mL produced 27% inhibition in experiment [2] (Oryctolagus cuniculus, Platelet, PAF-induced, from maximum aggregation rate vs blank control). In experiment [2] (setting [5]), the “Platelet aggregation rate 1 min” value was determined as 27.13 ± 2.06, the “Platelet aggregation rate 5 min” value is recorded as 42.18 ± 9.73 and the “Platelet aggregation rate Max” value was 48.08 ± 5.82. Further, in experiment [3] (TTC staining 24 hours after re-perfusion, compositions 2.4 g·kg^−1 i.v.), the Infarct size % came out at 15.49 ± 5.94%. Moreover, the BWC % in experiment [3] (brain water content 24 hours after re-perfusion, compositions 2.4 g·kg^−1 i.v.) was 68.36 ± 8.97%. This compound returned a Neurologic score in experiment [3] (rat MCAO, 3 h ischemia, after reperfusion, compositions 2.4 g·kg^−1 tail vein injection) of 2.70 ± 0.95. Further, in experiment [3] (setting [6]), the “MDA/nmol* mg^−1” value came to 5.79 ± 1.75 nmol/mg and the “SOD/U*mg^−1” value was determined as 26.94 ± 4.37 U*mg^−1.

Broadly, the inhibition is the share of the control response that was lost under treatment. A higher inhibition goes with a response far below the control.

The values are drawn from patent US11564904B2, “Gingko diterpene lactone composition” (Jiangsu Kanion Pharmaceutical Co., Ltd., priority 2017, dated 2023).
